Test results as given in ChEMBL document CHEMBL1201862, “PubChem BioAssay data set” (2004).
Calls of active or inactive are those of the source. Cut-off read from the data, not from the text of the source, for most assays here: actives have a measured EC50 and inactives only a lower limit.

How the values were obtained:
[1] = microbe, parasite or virus in culture; format: functional; conditions: Mycobacterium tuberculosis
[2] = Luminescence Cell-Based Dose Retest to Confirm Inhibitors of Cancer Stem Cells. [Related pubchem assays (depositor defined):AID2717, AID2721]; format: functional; conditions: Homo sapiens
[3] = target: T1, Replicative DNA helicase DnaB (Mycobacterium tuberculosis, UniProt P9WMR3); assay: DnaB intein splicing inhibitors, dose response, biochemical, cell-free fluorescence (AID 449749); format: functional
T1 sequence (P9WMR3 whole entry): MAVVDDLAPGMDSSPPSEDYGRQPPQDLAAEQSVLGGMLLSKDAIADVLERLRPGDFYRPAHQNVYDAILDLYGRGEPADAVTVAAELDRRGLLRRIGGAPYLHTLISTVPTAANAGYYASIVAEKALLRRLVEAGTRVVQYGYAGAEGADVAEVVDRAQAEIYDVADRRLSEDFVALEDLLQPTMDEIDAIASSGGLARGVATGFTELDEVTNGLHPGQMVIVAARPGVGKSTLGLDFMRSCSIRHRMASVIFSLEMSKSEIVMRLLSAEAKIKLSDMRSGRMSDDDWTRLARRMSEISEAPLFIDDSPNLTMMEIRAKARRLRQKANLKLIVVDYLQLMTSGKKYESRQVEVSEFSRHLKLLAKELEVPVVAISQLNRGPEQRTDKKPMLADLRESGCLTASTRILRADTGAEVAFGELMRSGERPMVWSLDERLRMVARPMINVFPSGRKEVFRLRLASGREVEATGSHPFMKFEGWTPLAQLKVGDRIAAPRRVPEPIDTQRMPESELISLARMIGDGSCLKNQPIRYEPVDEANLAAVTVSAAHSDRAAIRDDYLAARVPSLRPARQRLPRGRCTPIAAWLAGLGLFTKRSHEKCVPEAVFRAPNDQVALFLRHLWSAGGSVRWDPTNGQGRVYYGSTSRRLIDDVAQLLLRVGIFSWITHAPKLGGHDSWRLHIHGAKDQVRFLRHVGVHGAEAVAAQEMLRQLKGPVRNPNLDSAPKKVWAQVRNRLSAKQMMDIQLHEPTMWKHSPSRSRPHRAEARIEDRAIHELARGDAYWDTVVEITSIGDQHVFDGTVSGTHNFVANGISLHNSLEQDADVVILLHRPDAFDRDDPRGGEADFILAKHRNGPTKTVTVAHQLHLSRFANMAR

[4] = target: T2, Protein RecA (Mycobacterium tuberculosis, UniProt P9WHJ3); assay: Fluorescence Cell-Free Homogeneous Dose Retest to Identify Inhibitors of RecA-Intein Splicing Activity. [Related pubchem assays (depositor defined):AID2097, AID2223, AID489010, AID492950]; format: functional
T2 sequence (P9WHJ3 whole entry): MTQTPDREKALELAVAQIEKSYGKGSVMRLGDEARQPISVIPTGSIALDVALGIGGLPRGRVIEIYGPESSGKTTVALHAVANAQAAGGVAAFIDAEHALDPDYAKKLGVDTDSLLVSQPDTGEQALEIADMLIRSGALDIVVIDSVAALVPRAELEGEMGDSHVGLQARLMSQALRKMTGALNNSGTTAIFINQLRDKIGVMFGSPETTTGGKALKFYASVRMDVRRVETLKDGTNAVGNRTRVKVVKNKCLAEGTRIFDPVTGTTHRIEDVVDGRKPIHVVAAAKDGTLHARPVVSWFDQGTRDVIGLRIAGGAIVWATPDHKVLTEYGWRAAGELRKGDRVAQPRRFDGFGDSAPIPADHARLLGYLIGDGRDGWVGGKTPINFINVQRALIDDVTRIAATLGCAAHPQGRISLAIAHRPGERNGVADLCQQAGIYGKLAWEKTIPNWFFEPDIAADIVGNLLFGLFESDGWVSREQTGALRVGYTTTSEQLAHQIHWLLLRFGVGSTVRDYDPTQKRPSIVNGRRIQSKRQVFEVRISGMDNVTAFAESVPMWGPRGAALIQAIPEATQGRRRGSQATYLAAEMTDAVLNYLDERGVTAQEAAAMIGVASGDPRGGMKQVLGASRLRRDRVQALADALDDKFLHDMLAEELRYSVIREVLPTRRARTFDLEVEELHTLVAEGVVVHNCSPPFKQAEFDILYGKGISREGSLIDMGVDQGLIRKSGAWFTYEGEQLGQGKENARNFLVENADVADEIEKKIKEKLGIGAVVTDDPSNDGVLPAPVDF

[5] = test system: INS1; assay: INS-1E survival protection against cytokine death – cell-based, luminescence, retest, dose response (AID 449756); format: functional; conditions: Rattus norvegicus;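 note: cell death triggered by IL-1 beta plus TNF-alpha plus IFN-gamma mixture; protective hits raise ATP signal compared with cytokine alone wells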
[6] = target: T3, Calpain-2 catalytic subunit (Sus scrofa, UniProt P43367); assay: m-calpain protease blockers, concentration series – biochemical, fluorogenic peptide substrate, dose response (AID 1420); format: functional
T3 sequence (P43367 whole entry): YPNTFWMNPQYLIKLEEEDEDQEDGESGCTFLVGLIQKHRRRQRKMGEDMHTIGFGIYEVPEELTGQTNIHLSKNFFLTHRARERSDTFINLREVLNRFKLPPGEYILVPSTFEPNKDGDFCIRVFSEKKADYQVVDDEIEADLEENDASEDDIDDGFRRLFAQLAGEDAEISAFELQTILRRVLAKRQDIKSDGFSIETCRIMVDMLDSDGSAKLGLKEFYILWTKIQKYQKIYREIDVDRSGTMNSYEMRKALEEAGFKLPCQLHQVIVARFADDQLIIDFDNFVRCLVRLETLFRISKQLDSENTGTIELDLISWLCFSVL

[7] = target: T4, Heat shock factor protein 1 (Mus musculus, UniProt P38532); assay: decrease of HSF1-responsive luciferase luminescence – cell-based, NIH3T3, dose retest, confirmation (AID 2382); format: functional;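 note: NIH3T3 fibroblasts with HSF1-driven luciferase reporter stressed by proteasome inhibitor MG132; luminescence from HSF1-driven luciferase expression after 8 hours of MG132 stress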
T4 sequence (P38532 whole entry): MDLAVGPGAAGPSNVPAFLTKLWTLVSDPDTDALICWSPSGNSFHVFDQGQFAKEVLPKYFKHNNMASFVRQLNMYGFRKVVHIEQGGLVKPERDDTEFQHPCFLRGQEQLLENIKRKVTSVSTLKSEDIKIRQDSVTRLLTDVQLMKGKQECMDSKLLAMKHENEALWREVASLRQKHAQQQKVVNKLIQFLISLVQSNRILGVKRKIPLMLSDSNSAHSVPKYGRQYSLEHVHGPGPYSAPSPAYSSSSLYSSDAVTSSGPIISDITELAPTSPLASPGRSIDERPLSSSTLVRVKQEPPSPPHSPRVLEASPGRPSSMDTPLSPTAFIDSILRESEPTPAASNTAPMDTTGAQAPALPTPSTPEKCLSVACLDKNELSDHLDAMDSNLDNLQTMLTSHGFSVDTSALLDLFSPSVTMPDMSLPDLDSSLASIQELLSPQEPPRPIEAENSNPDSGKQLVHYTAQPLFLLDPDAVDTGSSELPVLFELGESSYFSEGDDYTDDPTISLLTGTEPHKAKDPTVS

[8] = target: T5, Cytochrome P450 1A2 (Homo sapiens, UniProt P05177);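 note: PubChem cytochrome P450 panel assay, CYP1A2 panel member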
T5 sequence (P05177 whole entry): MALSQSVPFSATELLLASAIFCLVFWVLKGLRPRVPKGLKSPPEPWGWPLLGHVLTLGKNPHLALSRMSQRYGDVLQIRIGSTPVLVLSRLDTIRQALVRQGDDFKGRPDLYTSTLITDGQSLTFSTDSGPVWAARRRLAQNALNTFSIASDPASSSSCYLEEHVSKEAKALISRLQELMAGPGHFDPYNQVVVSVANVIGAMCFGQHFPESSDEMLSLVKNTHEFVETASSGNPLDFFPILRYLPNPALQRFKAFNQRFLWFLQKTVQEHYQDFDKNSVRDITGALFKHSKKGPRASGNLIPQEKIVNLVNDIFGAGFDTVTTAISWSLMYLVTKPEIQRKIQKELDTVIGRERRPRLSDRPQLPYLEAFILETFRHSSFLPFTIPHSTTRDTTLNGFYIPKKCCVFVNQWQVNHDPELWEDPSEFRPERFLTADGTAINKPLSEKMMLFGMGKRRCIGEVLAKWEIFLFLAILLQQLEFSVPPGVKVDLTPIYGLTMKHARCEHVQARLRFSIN

[9] = target: Cytochrome P450 3A4 (Homo sapiens, UniProt P08684);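 note: CYP3A4 tested as one member of a cytochrome P450 panel screen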
[10] = luciferase reporter signal suppression in cells – H4 neuroglioma cells, luminescence, dose response (AID 1990); format: functional, cell-based
[11] = alpha-synuclein stem-loop luciferase translation blockers – H4 neuroglioma cells, luminescence, confirmation (AID 1988); format: functional, cell-based
[12] = test system: BJ; assay: BJ-TERT fibroblast viability loss – cell-based, RAS-independent, luminescence, dose response (AID 1933); format: functional; conditions: Homo sapiens
[13] = test system: BJ; assay: cells; format: functional, cell-based; conditions: Homo sapiens
[14] = test system: BJ; assay: BJ-TERT-LT-ST fibroblast viability loss – cell-based, RAS-independent, luminescence, dose response (AID 1935); format: functional; conditions: Homo sapiens;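 note: BJ fibroblasts immortalized with TERT plus LT and ST oncogenes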
[15] = DRD fibroblast viability loss – cell-based, non-viral oncogenic, luminescence, dose response (AID 1934); format: functional; conditions: Homo sapiens
[16] = target: T4, Heat shock factor protein 1; assay: enhancement of HSF1-driven luciferase signal – cell-based, NIH3T3, luminescence, dose retest, confirmation (AID 435004); format: functional;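 note: stress induced by proteasome inhibitor MG132 added 30 min after compound; luciferase reporter driven by HSF1 response element in NIH3T3 cells; actives raise luminescence as potentiators of the MG132 stress response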
[17] = cells; format: functional

Chain of Cytochrome P450 3A4 (P08684 whole entry): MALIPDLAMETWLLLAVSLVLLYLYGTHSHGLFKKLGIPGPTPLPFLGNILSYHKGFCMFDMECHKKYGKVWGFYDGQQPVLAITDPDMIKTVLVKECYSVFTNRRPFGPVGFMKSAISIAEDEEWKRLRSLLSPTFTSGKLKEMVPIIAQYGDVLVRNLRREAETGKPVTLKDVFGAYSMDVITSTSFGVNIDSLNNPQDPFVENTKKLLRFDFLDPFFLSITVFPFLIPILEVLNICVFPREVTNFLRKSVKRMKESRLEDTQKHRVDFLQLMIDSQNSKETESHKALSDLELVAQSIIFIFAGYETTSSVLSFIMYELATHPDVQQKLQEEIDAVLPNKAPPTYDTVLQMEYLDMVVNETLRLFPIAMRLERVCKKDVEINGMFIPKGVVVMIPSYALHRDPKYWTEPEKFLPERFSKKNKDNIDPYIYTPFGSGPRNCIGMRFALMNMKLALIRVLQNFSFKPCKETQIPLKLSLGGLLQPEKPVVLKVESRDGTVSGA

Oc1ccc(Nc2nc(-c3ccc4ccccc4c3)cs2)cc1
CC50 [1]: 17.1 µM (active)
AC50 [2]: 5.31 µM (active)
AC50 [3]: 67.6 µM (active)
EC50 [4]: 7.3 µM (active)
AC50 [5]: 16.6 µM (active)

Cc1cccc(NC(=O)c2cc3c(=O)n4ccccc4nc3n(CC(C)C)c2=N)c1
IC50 [6]: > 50 µM (not active)

CCOC(=O)Cn1c(=O)cc(C)c2cccc(C)c21
IC50 [6]: < 0.4 µM (not active)

CC1(C)C=C(c2ccc(C=O)s2)CC(C)(C)N1C=O
EC50 [7]: > 195 µM (not active)

CCOC(=O)c1c(C)[nH]c(C2=NN=C(Nc3cccc(Cl)c3)SC2)c1C
EC50 [7]: 25.3 µM (active)

Cc1ccc(NS(=O)(=O)c2cc(C(=O)NCCSC3CCCCC3)ccc2C)cc1
IC50 [6]: > 50 µM (not active)

S=C(c1ccc(N2CCCC2)cc1)N1CCCCC1
IC50 [6]: 12.1 µM (active)

CC(C)CC(=O)NC(NC(=O)CC(C)C)c1cccc([N+](=O)[O-])c1
EC50 [7]: > 195 µM (not active)

C#CCSc1nnc(-c2sc3ccccc3c2Cl)o1
IC50 [6]: > 50 µM (not active)
AC50 [8]: 0.126 µM (inconclusive)
AC50 [9]: 8.91 µM (inconclusive)

CCCc1n[nH]c2c1C(c1ccc(O)cc1OCC)C(C#N)=C(N)O2 (configuration not stated)
AC50 [3]: 40.3 µM (active)
EC50 [4]: 4.6 µM (active)

CC(C)(C)OC(=O)C1C(=O)CC(C)(O)C(C(=O)OC(C)(C)C)C1c1cccnc1 (configuration not stated)
EC50 [7]: > 195 µM (not active)

CN(Cc1ccc(Cl)cc1)C(=O)CCl
AC50 [3]: 21.8 µM (active)
EC50 [4]: 2.61 µM (active)

O=c1ccc2ccc(Oc3ccc(Cl)cc3[N+](=O)[O-])cc2o1
IC50 [6]: < 0.4 µM (not active)

CC(O)c1nc2ccccc2n1Cc1nnc(-c2ccc(Cl)cc2)o1 (configuration not stated)
EC50 [7]: > 195 µM (not active)

Fc1ccc(Cc2nnc(-c3cccs3)o2)cc1
EC50 [7]: > 195 µM (not active)

Cc1cccc(NC(=O)CSc2nnc(CNC(=O)c3cccs3)o2)c1C
IC50 [6]: 7.44 µM (not active)

O=C(NCCc1ccccn1)c1ccc(OC(F)F)cc1
IC50 [6]: < 0.4 µM (not active)

COc1ccc(CCNC(=O)CC2(CC3=NS(=O)(=O)c4ccccc4N3)CCCC2)cc1OC
EC50 [10]: 18.8 µM (active)
EC50 [11]: > 120 µM (not active)

CCOc1ccc(NC(=O)CN(C)C(=O)c2ccc(N3CCCC3)c([N+](=O)[O-])c2)cc1OCC
EC50 [7]: > 195 µM (not active)

COc1ccc(-c2noc(N3CCC(C(=O)NCCCN4CC(C)CC(C)C4)CC3)n2)cc1 (configuration not stated)
EC50 [7]: > 195 µM (not active)

S=C(Nc1ccccc1Oc1ccccc1)Nc1cccc(Cl)c1Cl
IC50 [6]: 12.7 µM (not active)

COC(=O)c1c(C)oc2ccc(N(C(=O)c3ccncc3)S(=O)(=O)c3ccc(C)cc3C)cc12
AC50 [3]: 2.27 µM (active)
EC50 [4]: 10.9 µM (active)
AC50 [5]: 3.85 µM (active)

CC(=O)Oc1cc2c(cc1Cl)C1(CC(c3ccccc3Cl)O2)CC(C)(C)N=C(S)N1 (configuration not stated)
AC50 [3]: 4.22 µM (active)
EC50 [4]: 14.1 µM (active)

COC(=O)Nc1sccc1C(=O)Nc1sccc1C(=O)OC
EC50 [7]: > 195 µM (not active)

CC(=C/C(=O)O)/C(=C/c1ccccc1)C(=O)O
IC50 [6]: < 0.4 µM (not active)

CC(=O)N1CC2(c3ccccc3)CN(C(C)=O)CC(c3ccccc3)(C1)C2=O
AC50 [3]: > 380 µM (inactive)
EC50 [4]: > 380 µM (inactive)

COC(=O)/C(=C\Nc1ccc(Cl)cc1Cl)NC(=O)c1ccc(OC)cc1
EC50 [12]: 10 µM (inconclusive)
EC50 [13]: 57.7 µM (active)
EC50 [14]: 15.3 µM (inconclusive)
EC50 [15]: 4.31 µM (active)

Cc1c(C(=O)N/N=C/c2ccccc2)[nH]c2c([N+](=O)[O-])cccc12
EC50 [12]: 0.776 µM (active)
EC50 [13]: 73.1 µM (inconclusive)
EC50 [14]: 0.708 µM (inconclusive)
EC50 [15]: 27.1 µM (inconclusive)

C/C(CC(=O)Nc1cc(C)ccn1)=N\NC(=O)c1cccc(F)c1
AC50 [3]: 18.7 µM (active)
EC50 [4]: 8.06 µM (active)

COc1ccc(N/N=C(\C#N)C(=N)SCc2ccccc2)cc1
AC50 [3]: 3.6 µM (active)
EC50 [4]: 8.67 µM (active)

Cc1[nH]n(-c2ccccc2)c(=O)c1N=Nc1ccc2c(c1)OCO2
EC50 [7]: > 195 µM (not active)

CSC(=N/c1cc(Cl)ccc1Cl)/C(C#N)=C(/O)c1ccco1
CC50 [1]: 37.1 µM (active)
EC50 [16]: 11.2 µM (active)
IC50 [17]: 7.46 µM (active)
AC50 [3]: 2.51 µM (active)
EC50 [4]: 0.912 µM (active)
